Results: publication PMC11026381, “Late-stage meta-C–H alkylation of pharmaceuticals to modulate biological properties and expedite molecular optimisation in a single step” (Nature Communications, 2024)
In brackets after ≈: the same amount, converted by molar mass.

Key:
[1] = Metabolic stability in male Han Wistar rat hepatocytes (CLint Rat Hep.); type: in vitro ADME; details: measured on the labelled compound itself, 1 μM, 10^6 viable cells/mL, 37 °C, n = 1
Protocol: Metabolic stability in male Han Wistar rat hepatocytes (CLint Rat Hep.) Hepatocyte metabolic stability was determined in accordance with the method described by Jacobson et al14. Cryopreserved hepatocytes at a concentration of 10 6 viable cells/mL were used. After thawing, hepatocytes were incubated for 10 min to warm to 37 °C, and compounds dissolved in MeCN were […]
incubation system was mixed and 20 μL aliquots were transferred at each time point to wells in a separate plate filled with 80 μL MeCN to stop the reaction. The quenching plate was then vortexed followed by centrifugation, and supernatants were analysed by LC-MS/MS (Waters Xevo-TQS). Peak areas were determined from extracted ion chromatograms, and the in vitro intrinsic clearance (in vitro CLint, in μL/min/10^6 cells) of parent compound was calculated from the slope in the regression analysis of the natural logarithm of parent concentration vs. time curve. Rat Hepatocytes (Cryosuspension, Male Wistar Hannover ) were harvested and s upplied by BioIVT (Product No. M00065, Lot No. DVO).
(§1) The modulation of pharmaceutically relevant properties on meta-C–H alkylation is shown below in Supplementary Fig. 68, with a selection of physicochemical and DMPK data including solubility , LogD, human plasma protein binding (Prot. Bind.) and intrinsic clearance (CLint) in human liver microsomes (HLM) or rat hepatocytes (Rat Hep.) .

[2] = Thermodynamic solubility, shake-flask approach, phosphate buffer pH 7.4; type: physicochemical; details: pH 7.4, phosphate buffer 0.1 M, 20 °C, n = 1
Source text: (§2) 5. Pharmaceutically relevant properties modulation
(§3) Product analogues 5e, 6a-6k obtained after late-stage meta-C–H alkylation of the pharmaceutically active compound Emapunil (4e) were subjected to a range of fundamental in vitro drug discovery assays. To prevent hydrolysis of ester groups present on these analogues during biological testing (in order to compare the clearance and metabolic stability between these drug derivatives), their corresponding free acids 5e’, 6a’-6k’ were synthesised (see page S54) and subjected to similar assays.
The experimental methods used for these physicochemical & drug metabolism and pharmacokinetics (DMPK) assays are described below 11.
This method measures the thermodynamic solubility of compounds based on a shake-flask approach12.
The nature of the solid state was unknown in these experiments and may be subject to variability. The compounds were dissolved in DMSO (30 μL, 10 mM) in glass vials, and were dried using a Genevac vacuum evaporator (Genevac Ltd, Ipswich, UK). When the samples were dry, 300 μL of phosphate buffer (0.1 M, pH 7.4) was added to the glass vials. The vials were put on an Edmund Bühler shaker (Edmund Bühler GmbH, Hechingen, Germany) at 20 °C for 18 hours. Samples were filtered through a Whatman GF/B 96-well filter and 20 μL of filtrated samples were transferred to separate wells in a plate containing 180 μL MeCN/H2O (1:1). Standards were prepared by diluting the 10 mM compound solutions with MeCN/H2O (1:1) to 200 μM. Three further dilution steps of 10 times were applied to both the samples and standards and they were all analy sed by LC-MS/MS (Waters Xevo-TQS). Solubility was determined using the integrated peak areas of the samples in the linear MS response range. […]

[3] = Fraction unbound in human plasma (Prot. Bind.), equilibrium dialysis; type: in vitro ADME; details: 5 μM, dialysis at 37 °C for 18 hours
Source text: as §2, §3
(§4) The experimental methods used for these physicochemical & drug metabolism and pharmacokinetics (DMPK) assays are described below 11. […]
Fraction unbound in human plasma (Prot. Bind.)
Equilibrium dialysis of compounds was used to assess the fraction unbound in human plasma. Stock solutions of compounds dissolved in DMSO were pooled into cassettes with up to 10 compounds in each cassette with a concentration of 1 mM. The pooled stock solutions were diluted in plasma to a compound concentration of 5 μM. Warfarin, propranolol and metoprolol were used as reference compounds in each run. The equilibrium dialysis device (RED, Thermo Fischer Scientific Inc., Rockford, USA) was used for dialysis against phosphate buffer (pH 7.4) at 37 °C for 18 hours. Calibration curves ranging from 0.001 to 7 μM were made using aliquots of the 7 μM spiked plasma pools that were transferred to a new plate followed by serial dilutions with blank plasma. Calibration curve samples and dialysis samples were precipitated with MeCN and after centrifugation, supernatants were removed and analysed using LC-MS/MS (Waters Xevo-TQS). Fraction unbound in the incubation was calculated as the concentration in the media buffer sample divided by the concentration in the plasma sample. The fraction unbound was reported as the median value.

[4] = Metabolic stability in human liver microsomes (CLint HLM); type: in vitro ADME; details: 1 mg/mL microsomal protein, 1 mM NADPH, 37 °C; for microsomal CLint at 1 μM: both sexes, human, liver microsomes, pH 7.4, measured on the labelled compound itself, n = 1, read-out: CLint HLM (intrinsic clearance in human liver microsomes); for CLint HLM (intrinsic clearance in human liver microsomes): measured on the labelled compound itself, 1 μM, n = 1
Protocol: Metabolic stability in human liver microsomes (CLint HLM)
Human liver microsomes were defrosted on ice and diluted to 1 mg/mL of microsomal protein in phosphate buffer (0.1 M, pH 7.4). Compounds at 1 μM were incubated with the liver microsome suspensions and 1 mM NADPH at 37 °C in a 96-well plate. At 0.5, 5, 10, 15, 20 and 30 min, aliquots of 30 μL were transferred to a 96-well plate containing 120 μL MeCN. This plate was centrifuged for 20 min and supernatant was removed and diluted with H2O (1:1) before analysis by LC-MS/MS (Waters Xevo-TQS). Peak areas were determined from extracted ion chromatograms, and the in vitro intrinsic clearance (in vitro CLint, in μL/min/mg microsomal protein) of parent compound was calculated from the slope in the regression analysis of the natural logarithm of parent concentration vs. time curve.
Human Liver Microsomes (InVitroCYPTM 150-Donor, Mixed Gender) were harvested and supplied by BioIVT (Product No. X008070, Lot No. QQY). […]
as §1

[5] = Octanol/water partitioning (LogD), shake-flask method; type: physicochemical; details: n = 1
Source text: as §2, §3, §4
Octanol/water partitioning (LogD)
Partitioning of compounds between 1 -octanol and phosphate buffer (0.1 M, pH 7.4) at 20 °C were determined using a modified version of the shake -flask method described by Leo et al13. Compounds were dissolved in a 96 -well plate, in 400 μL octanol, and 400 μL of buffer was added to each well. The plate was vigorously stirred for 5 min and then put on an Edmund Bühler shaker (Edmund Bühler GmbH, Hechingen, Germany) at 20 °C for 18 hours. Aliquots of 5 μL octanol were transferred and diluted with 495 μL MeCN/H2O (1:1) and, to avoid contamination of the buffer, the rest of the octanol was removed before 150 μL of buffer samples were transferred. Octanol and buffer samples were diluted with MeCN/H2O (1:1) in four steps of 10 times to yield octanol samples diluted 10 2 to 106 times and buffer samples diluted 1 to 104 times. LC-MS/MS (Waters Xevo-TQS) was used for analysis, and distribution coefficient at pH 7.4 (LogD7.4) was calculated from the integrated peak areas of the samples in the linear MS response range. LogD7.4 results were reported as median values. […]

[6] = aqueous buffer, thermodynamic from solid
[7] = 1-octanol/phosphate buffer, pH 7.4, 1-octanol / phosphate buffer pH 7.4, 20 °C
[8] = 1-octanol / phosphate buffer pH 7.4, 20 °C

SMILES | solubility at 18 h [2, 6] [µM] | Prot. Bind. (% free), human plasma protein binding ([3]; n = 1) [% free] | microsomal CLint at 1 μM [4] [µL/min/mg] | logD [5, 7] | solubility at 18 h [2] [µM] | Prot. Bind. (% free), human plasma protein binding ([3]; n = 1, listed as 5e’) [% free] | CLint HLM (intrinsic clearance in human liver microsomes) [4] [µL/min/mg] | LogD (octanol) [5, 8] | Prot. Bind. (% free), human plasma protein binding ([3]; n = 1, listed as 6b’) [% free] | Prot. Bind. (% free), human plasma protein binding ([3]; n = 1, listed as 6e’) [% free] | CLint Rat Hep. (intrinsic clearance in rat hepatocytes) [1] [μL/min/10^6] | CLint Rat Hep. (intrinsic clearance in rat hepatocytes) ([1]; listed as 5e’) [μL/min/10^6] | CLint Rat Hep. (intrinsic clearance in rat hepatocytes) ([1]; listed as 6a’) [μL/min/10^6] | CLint Rat Hep. (intrinsic clearance in rat hepatocytes) ([1]; listed as 6b’) [μL/min/10^6] | CLint Rat Hep. (intrinsic clearance in rat hepatocytes) ([1]; listed as 6c’) [μL/min/10^6] | CLint Rat Hep. (intrinsic clearance in rat hepatocytes) ([1]; listed as 6e’) [μL/min/10^6] | CLint Rat Hep. (intrinsic clearance in rat hepatocytes) ([1]; listed as 6f’) [μL/min/10^6] | CLint Rat Hep. (intrinsic clearance in rat hepatocytes) ([1]; listed as 6g’) [μL/min/10^6] | Prot. Bind. (% free), human plasma protein binding ([3]; n = 1, listed as 6g’) [% free] | logD [5, 8]
CCN(Cc1ccccc1)C(=O)Cn1c(=O)n(C)c2cnc(-c3ccccc3)nc21 [4e, emapunil, reference compound] | 6 (≈ 2.41 µg/mL) | 0.8 | 218 | 3.2 | – | – | – | – | – | – | 164 | – | – | – | – | – | – | – | – | –
CCOC(=O)C1(c2cccc(-c3ncc4c(n3)n(CC(=O)N(CC)Cc3ccccc3)c(=O)n4C)c2)CCC1 [5e] | 17 (≈ 8.97 µg/mL) | 0.4 | > 300 | 4.4 | > 1000 | 2.0 | 5.5 | 0.7 | – | – | > 300 | 15.9 | – | – | – | – | – | – | – | –
CCOC(=O)Cc1cccc(-c2ncc3c(n2)n(CC(=O)N(CC)Cc2ccccc2)c(=O)n3C)c1 [6a] | 41 (≈ 20 µg/mL) | 12.0 | > 300 | 3.3 | 924 (≈ 451 µg/mL) | – | < 3.0 | -0.5 | – | – | > 300 | – | 10.5 | – | – | – | – | – | – | –
CCOC(=O)C(C)(C)c1cccc(-c2ncc3c(n2)n(CC(=O)N(CC)Cc2ccccc2)c(=O)n3C)c1 [6b] | 8 (≈ 4.12 µg/mL) | 0.8 | > 300 | 4.2 | > 1000 | – | 11.1 | 0.5 | 3.0 | – | > 300 | – | – | 10.3 | – | – | – | – | – | –
CCN(Cc1ccccc1)C(=O)Cn1c(=O)n(C)c2cnc(-c3cccc(C4(C(=O)OC)CC4)c3)nc21 [6c] | 51 (≈ 25.5 µg/mL) | 6.6 | > 300 | 3.3 | 965 (≈ 482 µg/mL) | – | < 3.0 | 0.3 | – | – | > 300 | – | – | – | 36.2 | – | – | – | – | –
CCOP(=O)(OCC)C(F)(F)c1cccc(-c2ncc3c(n2)n(CC(=O)N(CC)Cc2ccccc2)c(=O)n3C)c1 [6g] | 46 (≈ 27 µg/mL) | 2.0 | > 300 | – | > 1000 | – | < 3.0 | -0.8 | – | – | > 300 | – | – | – | – | – | – | 4.2 | 3.7 | 4.4

Continued, in another order:

solubility at 18 h [2, 6] [µM] | Prot. Bind. (% free), human plasma protein binding ([3]; n = 1) [% free] | microsomal CLint at 1 μM [4] [µL/min/mg] | logD [5, 7] | solubility at 18 h [2] [µM] | Prot. Bind. (% free), human plasma protein binding ([3]; n = 1, listed as 5e’) [% free] | CLint HLM (intrinsic clearance in human liver microsomes) [4] [µL/min/mg] | LogD (octanol) [5, 8] | Prot. Bind. (% free), human plasma protein binding ([3]; n = 1, listed as 6b’) [% free] | Prot. Bind. (% free), human plasma protein binding ([3]; n = 1, listed as 6e’) [% free] | SMILES | CLint Rat Hep. (intrinsic clearance in rat hepatocytes) [1] [μL/min/10^6] | CLint Rat Hep. (intrinsic clearance in rat hepatocytes) ([1]; listed as 5e’) [μL/min/10^6] | CLint Rat Hep. (intrinsic clearance in rat hepatocytes) ([1]; listed as 6a’) [μL/min/10^6] | CLint Rat Hep. (intrinsic clearance in rat hepatocytes) ([1]; listed as 6b’) [μL/min/10^6] | CLint Rat Hep. (intrinsic clearance in rat hepatocytes) ([1]; listed as 6c’) [μL/min/10^6] | CLint Rat Hep. (intrinsic clearance in rat hepatocytes) ([1]; listed as 6e’) [μL/min/10^6] | CLint Rat Hep. (intrinsic clearance in rat hepatocytes) ([1]; listed as 6f’) [μL/min/10^6] | CLint Rat Hep. (intrinsic clearance in rat hepatocytes) ([1]; listed as 6g’) [μL/min/10^6] | Prot. Bind. (% free), human plasma protein binding ([3]; n = 1, listed as 6g’) [% free] | logD [5, 8]
50 (≈ 24 µg/mL) | 0.5 | > 300 | 3.9 | – | – | – | – | – | – | CCN(Cc1ccccc1)C(=O)Cn1c(=O)n(C)c2cnc(-c3cccc(C4(C#N)CCC4)c3)nc21 [6d] | > 300 | – | – | – | – | – | – | – | – | –
36 (≈ 19 µg/mL) | 0.4 | > 300 | 4.3 | 864 (≈ 456 µg/mL) | – | < 3.0 | 1.4 | – | 0.7 | CCN(Cc1ccccc1)C(=O)Cn1c(=O)n(C)c2cnc(-c3cccc(C4(C(=O)OC)CCCC4)c3)nc21 [6e] | > 300 | – | – | – | – | 51.0 | – | – | – | –
12 (≈ 6.28 µg/mL) | 3.3 | > 300 | 4.3 | 852 (≈ 446 µg/mL) | – | 4.0 | -0.4 | – | – | CCOC(=O)C(F)(F)c1cccc(-c2ncc3c(n2)n(CC(=O)N(CC)Cc2ccccc2)c(=O)n3C)c1 [6f] | > 300 | – | – | – | – | – | 6.8 | – | – | –
